Source: patent US20070218504A1, “HUMAN LEPTIN-DERIVED POLYPEPTIDES AND USES THEREOF” (UNIVERSITY OF PITTSBURGH, priority 2006, published 2007)
“Also recorded” adds a separate entry of the source.

Assays:
[1] = tested on: tyrosine phosphorylation of STAT3; test: Leptin-induced tyrosine phosphorylation of STAT3 in HEK293 cells over-expressing OB-Rb in the presence of CRP (Western blot); assay type: cell-based, human
Description: (§1) To determine if the interaction between CRP and leptin dampens the cellular actions of leptin, the ability of leptin to stimulate tyrosine phosphorylation of STAT3 and PI3-kinase activity was assessed in the presence of CRP in vitro. HEK293 cells over-expressing OB-Rb were serum starved for 2 hours before addition of leptin and CRP (CHEMICON or EMD Biosciences). Leptin, in the presence or absence of CRP, was pre-incubated in μ-MEM (with additional 1 mM Ca^2+) for 30 minutes at 37° C. before being applied to the cells. After a 30-minute incubation with leptin, the cells were harvested in lysis buffer (18). The resultant protein extract was subjected to a Western blot analysis using an anti-phospho-STAT3 specific antibody (Cell Signaling, Beverly, Mass.). For studies involving primary hypothalamic neurons, the hypothalamus from rats was surgically isolated immediately after euthanasia, and placed in the DMEM for incubation with leptin in the presence or absence of CRP.

ob/ob mice = test: Co-infusion of polypeptide E with human CRP and leptin through mini-osmotic pumps into ob/ob mice; assay type: in vivo, mouse
Description: FIG. 11. […] Infusion dosages for human CRP and leptin were 48 μg/day/mouse and 12 μg/day/mouse, respectively. The infusion rate for Pep-E (P) was 24 μg/day/mouse (medium dosage, “m”) and 48 μg/day/mouse (high dosage, “h”). Food-intake (A and C) and body weight (B and D) were monitored daily throughout the infusion. The arrows in A-D indicate the day of surgery. At the end of infusion, blood samples were collected for the measurement of blood-glucose, human CRP, and human leptin. The serum concentrations of human CRP and human leptin were 0.85±0.1 μg/ml and 18 ng±2 ng/ml, respectively. […] Also shown is glucose concentration from mice infused with human CRP and leptin but not with Pep-E.
In the in vivo experiment, polypeptide E was co-infused through mini-osmotic pumps with human CRP and leptin into the ob/ob mice. Food intake in the period of 24 hours and body weight were followed during the infusion period (FIGS. 11A-11D).

[2] = tested on: leptin signaling in primary hypothalamic neurons; test: Phospho-STAT3 and PI3-kinase assays of leptin signaling in primary hypothalamic neurons; assay type: cell-based, rat
Description: as §1

CRP = test: Leptin's effect on CRP secretion and expression in human hepatocytes (Western, real-time RT-PCR); assay type: cell-based
Description: Human hepatocytes were isolated from donor livers. Briefly, the livers were perfused in a three-step process. A calcium-free buffer supplemented with EGTA is used to break […] junctions, which is followed by the same perfusion buffer without EGTA. Finally, a calcium-containing buffer supplemented with digestive enzymes (collagenase and DNase) was used. Following digestion, parenchymal hepatocytes were isolated by three steps of low-speed centrifugation. Cells with a viability of at least 85% were plated and cultured in hepatocytes maintenance medium (HMM) (Cambrex BioScience, Walkersville, Md.) supplemented with 10% fetal bovine serum (FBS), 0.1 μM dexamethasone, 0.1 μM insulin, and 50 μg/ml gentamicin on collagen-coated tissue culture dishes for 2-4 hours. The cells were subsequently cultured in the above medium without FBS.
Approximately 24 hours after seeded, the hepatocytes were washed with serum-free HMM supplemented with 0.1 μM dexamethasone and 0.1 μM insulin, and then cultured in the same medium for another 48 hours. Subsequently, the cells were switched to serum-free HMM supplemented with 0.1 μM dexamethasone before stimulated with leptin (NHPP) or rhIL-6 (R&D Systems, Minneapolis, Minn.) for 24 hours or 48 hours. For experiments involving PI3-kinase inhibitors, hepatocytes were pretreated with LY294002 (EMD Biosciences, Calif.) for 1 hour before hormonal stimulation.
Hepatocytes were isolated and treated as described in Example 4. Culture medium was centrifuged to remove detached cells and then heated at 95° C. for 5 minutes in SDS-sample buffer (Boston Bioproducts, Mass.). After separation on 10% SDS polyacrylamide gels, proteins were electro-transferred overnight to nitrocellulose membranes. Pre-blocked using 5% non-fat milk in PBS with 0.5% Tween 20, the membranes were incubated with appropriate primary antibody for 2 hours at room temperature, washed and incubated for 1 hour with a corresponding […] at room temperature. […]
CRP mRNA expression was measured by quantitative real-time RT-PCR. […]

Substance	calcium dependence of attenuation of leptin signaling ([1]; excess EGTA added to the medium)	effect of CRP on human leptin-induced tyrosine phosphorylation of STAT3 ([1]; HEK293 OB-Rb)	effect of CRP on human leptin-induced tyrosine phosphorylation of STAT3 ([1]; HEK293 OB-Rb, listed as Human CRP)	effect of CRP on murine leptin-induced tyrosine phosphorylation of STAT3 ([1]; murine/mouse leptin, HEK293 OB-Rb)	serum concentration of human CRP (ob/ob mice; end of infusion, 48 μg/day/mouse)	effect of human CRP on satiety and weight-reducing effects of human leptin in the absence of the polypeptide (ob/ob mice; human CRP 48 μg/day/mouse, leptin 12 μg/day/mouse)	effect on leptin signaling (phospho-STAT3, PI3-kinase) [2]	effect on CRP gene expression, short treatment (CRP; 6-8 hours)	effect on secreted CRP in the culture medium (CRP; human hepatocytes, physiological leptin concentrations, 24 hours)	effect on human CRP mRNA expression (CRP; real-time PCR)
human CRP: human C-reactive protein, purified preparation from a commercial source	requires the presence of calcium ions	attenuating effects; also recorded: caused the reduction of leptin-stimulated STAT3 activation; also recorded: attenuate	suppressed the activation of STAT3; also recorded: suppresses activation of STAT3	does not have attenuation effect; also recorded: unable to block	850 ± 100 ng/mL	able to block the satiety and weight-reducing effects	specifically inhibited leptin signaling	–	–	–
human leptin: human recombinant leptin	–	–	–	–	–	–	–	did not influence CRP gene expression	dose-dependent positive effect	dosage-dependent effect
